# Laboratory results as given in patent US9603827B2, “Method for preventing and/or treating hairy wart disease” (Mitsubishi-Kagaku Foods Corporation, priority 2014, dated 2017).
# Tests used:
# Format in all cases: in vivo
# [1] = tested on: dairy cows afflicted with digital dermatitis; test: Pain at affected area by pressure gauge, with and without hoof trimming (Example 4); conditions: applied after hoof trimming; observed after 2, 4 and 6 days
# Excerpt: (§1) Allyl isothiocyanate (trade name: “Wasaouro Powder”, Mitsubishi-Kagaku Foods Corp.) was applied to the affected areas of dairy cows afflicted with digital dermatitis, and microbial scores and changes in pain at the lesions were observed after 2, 4 and 6 days.
# (§2) Comparisons were made under the following conditions A to D in order to confirm differences in effects attributable to the presence or absence of hoof trimming.
# (§3) A: Allyl isothiocyanate applied to affected area after hoof trimming
# (§4) B: Allyl isothiocyanate applied to affected area without performing hoof trimming
# (§5) C: Allyl isothiocyanate applied after hoof trimming and cleaning the affected area with Oxydol disinfectant
# (§6) D: Affected area cleaned with Oxydol disinfectant after hoof trimming (without applying allyl isothiocyanate)
# Changes in pain were evaluated based on the level of pressure at which pain was felt by tightly squeezing the affected area with a pressure gauge. Larger values indicate lower levels of pain.
# [2] = tested on: dairy cows afflicted with hairy hoof wart attack; test: Effect of patch on hairy hoof wart attack of dairy cows (Example 2); conditions: assessed one week later
# Excerpt: 3 g of a powdered composition of allyl isothiocyanate (trade name: “Wasaouro Powder”, Mitsubishi-Kagaku Foods Corp.) were placed on a piece of absorbent cotton and pressed against the affected area of dairy cows (5) afflicted with hairy hoof wart attack followed by wrapping with an elastic bandage to administer the allyl isothiocyanate to the affected area in the form of a patch and assessing the effect one week later. […] Hairy hoof wart attack is a hoof and leg disease having lesions that are more serious and cover a broader area in comparison with digital dermatitis, and when considering that an effective preventive and/or treatment method has currently yet to be found, this effect of allyl isothiocyanate can be said to be groundbreaking.
# [3] = tested on: dairy cows afflicted with digital dermatitis; test: Effect of patch on digital dermatitis of dairy cows (Example 1); conditions: patch on affected area, assessed two days later
# Excerpt: 3 g of a powdered composition of allyl isothiocyanate (trade name: “Wasaouro Powder”, Mitsubishi-Kagaku Foods Corp.) were placed on a piece of absorbent cotton and pressed against the affected area of dairy cows afflicted with digital dermatitis followed by wrapping with an elastic bandage to administer the allyl isothiocyanate to the affected area in the form of a patch and assessing the effect two days later. In addition, the effect of respectively administering sodium alginate and slaked lime using the same method was also assessed two days later.
# [4] = tested on: Treponema; test: Microbial score of affected area with and without hoof trimming (Example 4); conditions: observed after 2, 4 and 6 days
# Excerpt: as §1, §2, §3, §4, §5, §6
# Microbial scores of the affected areas were obtained by scoring the number of microorganisms from a stamped specimen of the heel bulb in the manner indicated below.
# 3: Treponema covered the entire field of view
# 2: Large number of Treponema confirmed in the field of view
# 1: Treponema only occasionally confirmed
# 0: Treponema unable to be confirmed
# [5] = tested on: Treponema; test: 16S rRNA clone analysis of digital dermatitis lesion before and after treatment
# Excerpt: (§7) Samples were collected from two cows afflicted with digital dermatitis. First, a digital dermatitis lesion was collected from the affected area by biopsy prior to treatment. After collecting the lesion, a powdered composition containing allyl isothiocyanate (trade name: “Wasaouro Powder”, Mitsubishi-Kagaku Foods Corp.) was applied to the affected area. After confirming improvement of clinical symptoms seven days later, a sample was again collected by biopsy. The stage of digital dermatitis at the time of sampling was assessed macroscopically. In order to investigate the predominant microbial species in the lesion before and after treatment, DNA was extracted from four specimens of digital dermatitis lesion materials of the two cows before and after treatment, low cycle number PCR (25 cycles or less) was carried out using universal primers to 16S rRNA gene, and the amplified gene fragment was cloned in an Escherichia coli vector. 192 clones were randomly harvested for each specimen to determine the base sequence of the amplified 16S rRNA gene. Among these, a homology analysis was performed by a BLAST search using clones from which data was obtained for base sequences in excess of 1450 bp, followed by determination of microbial species.
# [6] = tested on: Anaerovorax odorimutans; test: as above; conditions: Table 3 cow
# Excerpt: as §7
# [7] = tested on: Acholeplasma vituli; test: as above; conditions: Table 3 cow
# Excerpt: as §7
# [8] = tested on: Eubacteriaceae; test: as above
# Excerpt: as §7
# [9] = tested on: Psychrobacter; test: as above; conditions: Table 3 cow
# Excerpt: as §7
# [10] = tested on: Clostridiaceae; test: as above; conditions: Table 3 cow
# Excerpt: as §7
# [11] = 3 g powder patch, five dairy cows
# [12] = Table 2 cow, after treatment (n = 171), seven days
# [13] = Table 2 cow, before treatment (n = 181)
# [14] = Table 3 cow, after treatment (n = 178), seven days
# [15] = Table 3 cow, before treatment (n = 180)
# [16] = after treatment (n = 178), seven days
smiles,measurement,setting,value
"C=CCN=C=S [Allyl isothiocyanate, allyl isothiocyanate]",pain,[1],decrease
same,cows in which the affected area demonstrated improvement,[2]; [11],one
same,cows in which the affected area healed,[2]; [11],two
same,cows in which the affected area was unchanged,[2]; [11],one
same,cows with effects categorized as improved or better,[2]; of the five dairy cows,four
same,Degree of effect: Effective (number of digits),[3],1 digits
same,Degree of effect: Ineffective (number of digits),[3],0 digits
same,Degree of effect: Slightly effective (number of digits),[3],0 digits
same,Degree of effect: Very effective (number of digits),[3],2 digits
same,percentage of digits for which the degree of the effect was effective or better,[3],100%
same,number of microorganisms at the lesion,[4]; administered after hoof trimming,decrease
same,number of microorganisms at the lesion,[4]; applied after cleaning the affected area with Oxydol disinfectant,decrease further
same,percentage of clones detected: Treponema,[5]; [12],7.0%
same,percentage of clones detected: Treponema,[5]; [13],79.6%
same,percentage of clones detected: Treponema,[5]; [14],0%
same,percentage of clones detected: Treponema,[5]; [15],37.8%
same,percentage of clones detected: Anaerovorax odorimutans,[6]; [16],0%
same,percentage of clones detected: Anaerovorax odorimutans,[6]; before treatment (n = 180),10.0%
same,percentage of clones detected: Acholeplasma vituli,[7]; [16],0%
same,percentage of clones detected: Acholeplasma vituli,[7]; before treatment (n = 180),3.9%
same,percentage of clones detected: Eubacteriaceae,[8]; [12],0.6%
same,percentage of clones detected: Eubacteriaceae,[8]; [13],5.5%
same,percentage of clones detected: Eubacteriaceae,[8]; [14],0.6%
same,percentage of clones detected: Eubacteriaceae,[8]; [15],10.6%
same,percentage of clones detected: Psychrobacter,[9]; [16],0%
same,percentage of clones detected: Psychrobacter,[9]; before treatment (n = 180),2.2%
same,percentage of clones detected: Clostridiaceae,[10]; [16],5.6%
same,percentage of clones detected: Clostridiaceae,[10]; before treatment (n = 180),26.7%
"[Ca+2].[OH-].[OH-] [Slaked lime, slaked lime, reference compound]",Degree of effect: Effective (number of digits),[3],2 digits
same,Degree of effect: Ineffective (number of digits),[3],0 digits
same,Degree of effect: Slightly effective (number of digits),[3],5 digits
same,Degree of effect: Very effective (number of digits),[3],0 digits
same,percentage of digits for which the degree of the effect was effective or better,[3],29%
